The values that follow come from ChEMBL document CHEMBL4270561, “Biological activity of doubly modified salinomycin analogs - Evaluation in vitro and ex vivo” (Eur J Med Chem, 2018).

One series concerns SK-BR-3. In words: Antiproliferative activity against human SK-BR-3 cells after 72 hrs by SRB assay. Format: functional, cell-based. The conditions noted are these: SK-BR-3, 72 h. A general note: In SRB staining, fixed cells bind dye roughly in proportion to their protein.
The nature of series [1]: Selectivity index, ratio of IC50 for human MCF10A cells to IC50 for human SK-BR-3 cells. Format: toxicity. The conditions noted are these: MCF10A cells versus SK-BR-3 cells, read-out: Ratio IC50.
A short description of series [2]: Selectivity index, ratio of IC50 for human MCF10A cells to IC50 for human LoVo cells. It is filed as toxicity. To be noted: MCF10A cells versus LoVo cells, read-out: Ratio IC50.
Series [3] is described as follows: Antiproliferative activity against human ALL5 cells after 120 hrs by MTT assay. The conditions noted are these: ALL5, 120 h. It is filed as functional, cell-based.
The test system of another series is MCF-10A. In words: Antiproliferative activity against human MCF10A cells after 72 hrs by SRB assay. It is filed as cell-based.
A short description of series [4]: Selectivity index, ratio of IC50 for human MCF10A cells to IC50 for human ALL5 cells. The conditions noted are these: MCF10A cells versus ALL5 cells, read-out: Ratio IC50. Format: toxicity.
The next series relates to LoVo. Kind of series: Antiproliferative activity against human LoVo cells after 72 hrs by SRB assay. Format: functional, cell-based.
The nature of series [5]: Selectivity index, ratio of IC50 for human MCF10A cells to IC50 for human LoVo/DX cells. It is filed as toxicity. The conditions noted are these: MCF10A cells versus LoVo/DX cells, read-out: Ratio IC50.
Another series relates to MCF7. In words: Antiproliferative activity against human MCF7 cells after 72 hrs by SRB assay. It is filed as functional, cell-based. The conditions noted are these: MCF7, 72 h.
Series [6] is described as follows: Resistance index, ratio of IC50 for human LoVo/DX cells to IC50 for human LoVo cells. Format: functional.
Series [7] in a line: Selectivity index, ratio of IC50 for human MCF10A cells to IC50 for human MCF7 cells. Format: toxicity. To be noted: MCF10A cells versus MCF7 cells, read-out: Ratio IC50.
A short description of series [8]: Selectivity index, ratio of IC50 for human MCF10A cells to IC50 for human JIMT1 cells. It is filed as toxicity. The conditions noted are these: MCF10A cells versus JIMT1 cells, read-out: Ratio IC50.
The next series relates to JIMT-1. In words: Antiproliferative activity against human JIMT1 cells after 72 hrs by SRB assay. It is filed as functional, cell-based. The conditions noted are these: JIMT-1, 72 h.
Series [9] can be described thus: Antiproliferative activity against human LoVo/DX cells after 72 hrs by SRB assay. It is filed as functional, cell-based.
Series [10] can be described thus: Cell cycle arrest in human ALL5 cells assessed as accumulation at G0/G1 phase at 5 times antiproliferative IC50 after 96 hrs by propidium iodide staining based flow cytometry (reference value: 69.8%). It is filed as functional. On the technique in general: Flow cytometry measures light scatter and fluorescence of single cells or particles in a stream.
Series [11] in a line: Cell cycle arrest in human ALL5 cells assessed as accumulation at sub-G1 phase at 5 times antiproliferative IC50 after 48 hrs by propidium iodide staining based flow cytometry (reference value: 7.8%). It is filed as functional.
Series [12] can be described thus: Cell cycle arrest in human ALL5 cells assessed as accumulation at G0/G1 phase at 5 times antiproliferative IC50 after 48 hrs by propidium iodide staining based flow cytometry (reference value: 69.6%). It is filed as functional.
A short description of series [13]: Cell cycle arrest in human ALL5 cells assessed as accumulation at S-phase at 5 times antiproliferative IC50 after 48 hrs by propidium iodide staining based flow cytometry (reference value: 9.82%). Format: functional.
A short description of series [14]: Cell cycle arrest in human ALL5 cells assessed as accumulation at S-phase at 5 times antiproliferative IC50 after 24 hrs by propidium iodide staining based flow cytometry (reference value: 6.76%). It is filed as functional.
Series [15] in a line: Cell cycle arrest in human ALL5 cells assessed as accumulation at sub-G1 phase at 5 times antiproliferative IC50 after 24 hrs by propidium iodide staining based flow cytometry (reference value: 6.07%). Format: functional.
A short description of series [16]: Cell cycle arrest in human ALL5 cells assessed as accumulation at S-phase at 5 times antiproliferative IC50 after 96 hrs by propidium iodide staining based flow cytometry (reference value: 7.52%). It is filed as functional.
The nature of series [17]: Cell cycle arrest in human ALL5 cells assessed as accumulation at G0/G1 phase at 5 times antiproliferative IC50 after 24 hrs by propidium iodide staining based flow cytometry (reference value: 79.7%). Format: functional.
A short description of series [18]: Cell cycle arrest in human ALL5 cells assessed as accumulation at G2/M-phase at 5 times antiproliferative IC50 after 96 hrs by propidium iodide staining based flow cytometry (reference value: 11.1%). Format: functional.
Series [19] in a line: Cell cycle arrest in human ALL5 cells assessed as accumulation at G2/M-phase at 5 times antiproliferative IC50 after 24 hrs by propidium iodide staining based flow cytometry (reference value: 7.98%). Format: functional.
The nature of series [20]: Cell cycle arrest in human ALL5 cells assessed as accumulation at sub-G1 phase at 5 times antiproliferative IC50 after 96 hrs by propidium iodide staining based flow cytometry (reference value: 12%). It is filed as functional.
A short description of series [21]: Cell cycle arrest in human ALL5 cells assessed as accumulation at G2/M-phase at 5 times antiproliferative IC50 after 48 hrs by propidium iodide staining based flow cytometry (reference value: 13.2%). Format: functional.

As for `CC[C@@H](C(=O)[C@@H](C)[C@@H](O)[C@H](C)[C@@H]1O[C@@H]([C@@H](CC)C(=O)NCCc2ccc(F)cc2)CC[C@@H]1C)[C@H]1O[C@]2(C=C[C@@H](O)[C@]3(CC[C@@](C)([C@H]4CC[C@](O)(CC)[C@H](C)O4)O3)O2)[C@H](C)C[C@@H]1C`, the IC50 in the series with SK-BR-3 amounted to 5.6 µM; in series [3] it was 1.7 µM; in the series on MCF-10A, 40 µM; with LoVo, 3.8 µM; with MCF7, 4.1 µM; with JIMT-1, 5.1 µM. The compound also came in with an IC50 in [9] of 2.5 µM. The selectivity ratio in series [1] was found to be 7.1; in [2], 11; in series [4] it was 24; in series [5], 16; in series [7], 9.8; in series [8] it was 7.8. The “Ratio IC50” value in series [6] is 0.66.
As to `CCNC(=O)O[C@@H]1C=C[C@]2(O[C@H]([C@@H](CC)C(=O)[C@@H](C)[C@@H](O)[C@H](C)[C@@H]3O[C@@H]([C@@H](CC)C(=O)NCCc4ccc(F)cc4)CC[C@@H]3C)[C@@H](C)C[C@H]2C)O[C@@]12CC[C@@](C)([C@H]1CC[C@](O)(CC)[C@H](C)O1)O2`, the Activity in [10] came to 42.5%; in series [11], 21.8%; in series [12], 71.6%; in series [13] it was 1.5%; in series [14] it was 3.8%; in series [15], 9.23%. Moreover, the Activity in [16] was determined as 2.28%; in series [17], 80.9%; in [18], 1.82%; in series [19] it was 6.14%; in [20] it was 53.7%; in series [21], 5.34%. In addition, the IC50 stood at 4.3 µM in the series with SK-BR-3; 2.9 µM in series [3]; 58 µM in the series with MCF-10A; 3.5 µM with LoVo; 3.8 µM in the series with MCF7; 4.4 µM in the series with JIMT-1. Half-maximal inhibition in [9] (IC50) was put at 3.3 µM. Further, the selectivity ratio was determined as 13 in series [1]; 17 in [2]; 20 in [4]; 18 in series [5]; 15 in series [7]; 13 in series [8]. Besides, in series [6], the “Ratio IC50” value was 0.94.
In the case of `C#CCNC(=O)[C@H](CC)[C@H]1CC[C@H](C)[C@H]([C@@H](C)[C@H](O)[C@H](C)C(=O)[C@H](CC)[C@H]2O[C@]3(C=C[C@@H](OC(C)=O)[C@]4(CC[C@@](C)([C@H]5CC[C@](O)(CC)[C@H](C)O5)O4)O3)[C@H](C)C[C@@H]2C)O1`, the Activity is on record as 20.6% in series [10]; 34.3% in series [11]; 58.9% in series [12]; 1.75% in [13]; 3.48% in [14]; 14.5% in series [15]. The Activity in [16] was 2.15%; in series [17], 77.1%; in series [18] it was 1.27%; in [19], 5.01%; in [20] it was 76.3%; in series [21] it was 5.11%. In addition, the IC50 in the series with SK-BR-3 worked out at 12 µM; in series [3], 4 µM; in the series on MCF-10A, 92 µM; in the series on LoVo it was 4.4 µM; in the series with MCF7, 5.8 µM; in the series with JIMT-1, 17 µM. For the same compound, the IC50 in series [9] amounted to 3.7 µM. Also, the selectivity ratio in series [1] stood at 7.7; in series [2], 21; in [4], 23; in series [5] it was 25; in series [7] it was 16; in series [8], 5.4. Besides, in series [6], the “Ratio IC50” value is 0.84.
As for `C#CCNC(=O)[C@H](CC)[C@H]1CC[C@H](C)[C@H]([C@@H](C)[C@H](O)[C@H](C)C(=O)[C@H](CC)[C@H]2O[C@]3(C=C[C@@H](OC(=O)NCC)[C@]4(CC[C@@](C)([C@H]5CC[C@](O)(CC)[C@H](C)O5)O4)O3)[C@H](C)C[C@@H]2C)O1`, the Activity is 25.2% in [10]; 26.1% in [11]; 65.9% in [12]; 1.8% in [13]; 4.1% in series [14]; 12.2% in [15]. The Activity worked out at 2.73% in [16]; 77.8% in series [17]; 1.55% in [18]; 6.08% in [19]; 70.8% in series [20]; 6.44% in series [21]. The IC50 in the series on SK-BR-3 was 7.7 µM; in series [3] it was 3.7 µM; in the series on MCF-10A, 82 µM; in the series with LoVo, 4.2 µM; with MCF7, 4.7 µM; in the series on JIMT-1, 5.9 µM. In [9], inhibition was half-maximal at 3.8 µM (IC50). The selectivity ratio in [1] amounted to 11; in [2], 20; in series [4] it was 22; in [5] it was 22; in series [7] it was 17; in series [8] it was 14. Moreover, the “Ratio IC50” value in series [6] is listed as 0.9.
Turning to `CC[C@@H](C(=O)[C@@H](C)[C@@H](O)[C@H](C)[C@@H]1O[C@@H]([C@@H](CC)C(=O)OCC(F)(F)F)CC[C@@H]1C)[C@H]1O[C@]2(C=C[C@@H](O)[C@]3(CC[C@@](C)([C@H]4CC[C@](O)(CC)[C@H](C)O4)O3)O2)[C@H](C)C[C@@H]1C`, the IC50 in the series with SK-BR-3 was determined as 17 µM; in series [3], 1.2 µM; with MCF-10A it was 43 µM; with LoVo it was 3.9 µM; in the series on MCF7, 4.4 µM; in the series with JIMT-1 it was 4.6 µM. This compound also came in with an IC50 in series [9] of 3.9 µM. Also, the selectivity ratio in series [1] came to 2.5; in [2], 11; in series [4] it was 36; in series [5], 11; in series [7], 9.8; in [8], 9.3. In addition, the “Ratio IC50” value in series [6] was found to be 1.
For `CCNC(=O)O[C@@H]1C=C[C@]2(O[C@H]([C@@H](CC)C(=O)[C@@H](C)[C@@H](O)[C@H](C)[C@@H]3O[C@@H]([C@@H](CC)C(=O)OCC(F)(F)F)CC[C@@H]3C)[C@@H](C)C[C@H]2C)O[C@@]12CC[C@@](C)([C@H]1CC[C@](O)(CC)[C@H](C)O1)O2`, the Activity in [10] was determined as 56%; in series [11] it was 19.8%; in series [12], 64.1%; in [13], 4.5%; in [14] it was 4.98%; in [15] it was 11%. Moreover, the Activity turned out to be 5.42% in series [16]; 76% in series [17]; 11% in series [18]; 8.15% in series [19]; 27.8% in [20]; 11.8% in series [21]. The IC50 turned out to be 64 µM in the series with SK-BR-3; 1.5 µM in [3]; 60 µM in the series with MCF-10A; 5.3 µM with LoVo; 6.1 µM with MCF7; 11 µM with JIMT-1. In addition, the IC50 in series [9] came out at 7.5 µM. Besides, the selectivity ratio in [1] is 0.94; in [2], 11; in series [4], 40; in series [5], 8; in series [7], 9.8; in series [8] it was 5.5. Moreover, the “Ratio IC50” value in [6] was 1.4.

For orientation: IC50 means the concentration that inhibits the measured activity by half. A higher IC50 goes with lower potency.
